For data set [1] the following is noted: rats, i.v.; cited from earlier work.
Data set [2] deals with K. pneumoniae N11-2218. As to the kind of experiment: Microdilution checkerboard / MIC. Particulars: meropenem alone. The format is cell-based, Klebsiella pneumoniae. As to the method:
FIC values were determined by standard methods^27 setting up checkerboards with 8 concentrations of each meropenem and AM-A in serial ½ dilutions. Experiments were done in duplicate and the mean used for calculation. The MIC for each compound was the lowest concentration of compound showing no growth. The FIC for each compound was calculated as the concentration of the compound in the presence of co-compound for a well showing no growth, divided by the MIC for that compound. The FIC index is the sum of the two FICs.

Data set [3] relates to K. pneumoniae N11-2218. Put plainly: Mouse systemic infection, organ bacterial load. The format is in vivo, CD1 mice. Particulars: meropenem alone, doses below 50 mg/kg. The text has this:
(§1) All animals were housed in specific pathogen-free units in the Central Animal Facility at McMaster University. All experimental protocols were approved by, and performed in accordance with the McMaster Animal Research Ethics Board. Female CD1 mice were purchased from Charles River.
(§2) Mice were infected intraperitoneally (ip) with a dose of 2×10^6 colony forming units (cfu) of Klebsiella pneumoniae N11-2218 for all organ bacterial load experiments, or with a dose of 5×10^7cfu for all survival experiments. For all organ bacterial load experiments, mice were euthanized 48 hours post infection, and spleen and liver were harvested. Organs were placed into 1 mL sterile PBS on ice, and then homogenized (Mixer Mill 400; Retsch). Organ homogenates were then serially diluted in PBS, and plated on Brilliant Green agar (Oxoid) for cfu enumeration. For survival curves, mice were monitored for endpoint. For all experiments, mice were treated 30 minutes post infection with a specified subcutaneous dose of either PBS, meropenem, AM-A inhibitor, or a combination of both antibiotic and inhibitor.

Data set [4] relates to K. pneumoniae N11-2218. As to the kind of experiment: Mouse lethal systemic infection, survival. The format is in vivo, CD1 mice. Particulars: monotherapy (alone).
Excerpt: as §1, §2

Where two headings read alike, the source gives them in different places.

As a reminder, the LD50 is the dose expected to kill half of the subjects tested. Regarding `O=C(O)CN[C@H](CN[C@@H](CC(=O)O)C(=O)O)C(=O)O` [AM-B, aspergillomarasime B], the LD50 in data set [1] is 660 mg/kg.
Broadly, the MIC is the smallest concentration in the dilution series that meets the test's criterion for growth inhibition. As for `C[C@@H](O)[C@H]1C(=O)N2C(C(=O)O)=C(S[C@@H]3CN[C@H](C(=O)N(C)C)C3)[C@H](C)[C@H]12` [meropenem, reference compound], the MIC with K. pneumoniae N11-2218 [2] (Klebsiella pneumoniae, N112218, read-out: MIC) amounted to 32 µg/mL; in the data set on K. pneumoniae N11-2218 [2] it was 32 µg/mL. The “response of infection to meropenem monotherapy” value in the data set on K. pneumoniae N11-2218 [3] is “resistant”. For the same compound, the “prevention of lethal infection” value with K. pneumoniae N11-2218 [4] is “unable to prevent lethal infection”.

These data come from patent publication US10016383B2, “Inhibitors of metallo-β-lactamase-enzymes” (McMaster University, priority 2013, dated 2018).
